Source: US7723527B2 (Janssen Pharmaceutica NV, priority 2003, dated 2010)

How the values were obtained:
human eosinophils = test: Inhibition of histamine-induced eosinophil shape change (gated autofluorescence forward scatter assay); conditions: for effect on histamine-induced eosinophil shape change: human eosinophils, result in words
[1] = biological target: T1, human histamine H4 receptor (Homo sapiens, UniProt Q9H3N8); test: Binding assay on recombinant human histamine H4 receptor (3H-histamine displacement); conditions: competition binding with 3H-histamine; membranes of SK-N-MC or COS7 cells expressing human H4 receptor; Cheng-Prusoff, KD 5 nM, ligand 5 nM
T1 construct: expressed in transfected cells; host or cells: SK-N-MC cells or COS7 cells, transiently transfected; cell membranes used
Outline: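 Membranes from SK-N-MC or COS7 cells transiently transfected with human H4R, incubated with ^3H-histamine (5-70 nM) at room temperature for 45 min, nonspecific binding with 10,000 nM histamine. Filtration and scintillation counting; compound affinity from displacement of ^3H-ligand across varying concentrations.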

[2] = histamine 0.01 μM, HR antagonist 10 μM or none
[3] = histamine 0.1 μM, HR antagonist 10 μM or none
[4] = histamine 1 μM, HR antagonist 10 μM or none
[5] = histamine 10 μM, HR antagonist 10 μM or none
[6] = histamine 0 μM, HR antagonist 10 μM

T1 sequence (Q9H3N8 whole entry): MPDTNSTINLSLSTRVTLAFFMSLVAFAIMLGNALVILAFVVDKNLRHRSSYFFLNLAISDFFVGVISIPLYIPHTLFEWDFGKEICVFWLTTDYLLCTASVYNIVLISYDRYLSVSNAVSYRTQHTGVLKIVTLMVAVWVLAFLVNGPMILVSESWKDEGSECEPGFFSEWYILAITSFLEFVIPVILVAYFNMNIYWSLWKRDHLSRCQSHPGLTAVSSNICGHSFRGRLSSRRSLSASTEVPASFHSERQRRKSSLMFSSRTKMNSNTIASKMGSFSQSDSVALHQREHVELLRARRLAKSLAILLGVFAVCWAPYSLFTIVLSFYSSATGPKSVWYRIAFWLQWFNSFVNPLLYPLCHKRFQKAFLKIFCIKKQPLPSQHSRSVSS

## CN1CCN(C(=O)c2cc3cc(Cl)ccc3[nH]2)CC1 [(5-chloro-1H-indol-2-yl)-(4-methyl-piperazin-1-yl)-methanone]
Human eosinophils; Homo sapiens, Eosinophil, read-out: IC50, inhibition of histamine-induced eosinophil shape change
  IC50: 270 nM

## Cc1cc(C)c2nc(-c3cc(OCCCCC4CCN(C)CC4)ncc3Cl)[nH]c2c1 [Example 169, 2-{5-Chloro-2-[4-(1-methyl-piperidin-4-yl)-butoxy]-pyridin-4-yl}-4,6-dimethyl-1H-benzoimidazole]
[1]
  Ki: 1 nM

## CN1CCC(CCCCOc2cc(-c3nc4cc(Cl)ccc4[nH]3)c(Cl)cn2)CC1 [Example 170, 5-Chloro-2-{5-chloro-2-[4-(1-methyl-piperidin-4-yl)-butoxy]-pyridin-4-yl}-1H-benzoimidazole]
[1]
  Ki: 5 nM

## CN1CCC(CCCCOc2cc(-c3nc4cc(Cl)c(F)cc4[nH]3)c(Cl)cn2)CC1 [Example 171, 5-Chloro-2-{5-chloro-2-[4-(1-methyl-piperidin-4-yl)-butoxy]-pyridin-4-yl}-6-fluoro-1H-benzoimidazole]
[1]
  Ki: 12 nM

## CN1CCC(CCCCOc2cc(-c3nc4cc(C(C)(C)C)ccc4[nH]3)c(Cl)cn2)CC1 [Example 172, 5-tert-Butyl-2-{5-chloro-2-[4-(1-methyl-piperidin-4-yl)-butoxy]-pyridin-4-yl}-1H-benzoimidazole]
[1]
  Ki: 1 nM

## CN1CCC(CCCCOc2cc(-c3nc4c(Cl)cccc4[nH]3)c(Br)cn2)CC1 [Example 173, 2-{5-Bromo-2-[4-(1-methyl-piperidin-4-yl)-butoxy]-pyridin-4-yl}-4-chloro-1H-benzoimidazole]
[1]
  Ki: 21 nM

## CN1CCC(CCCCOc2cc(-c3nc4cc(Cl)c(F)cc4[nH]3)c(Br)cn2)CC1 [Example 174, 2-{5-Bromo-2-[4-(1-methyl-piperidin-4-yl)-butoxy]-pyridin-4-yl}-5-chloro-6-fluoro-1H-benzoimidazole]
[1]
  Ki: 31 nM

## CN1CCC(CCCCOc2cc(-c3nc4cc(Cl)ccc4[nH]3)c(Br)cn2)CC1 [Example 175, 2-{5-Bromo-2-[4-(1-methyl-piperidin-4-yl)-butoxy]-pyridin-4-yl}-5-chloro-1H-benzoimidazole]
[1]
  Ki: 6 nM

## Cc1c(F)ccc2[nH]c(-c3ccc(OCCCC4CCN(C)CC4)cc3CO)nc12 [Example 176, {2-(5-Fluoro-4-methyl-1H-benzoimidazol-2-yl)-5-[3-(1-methyl-piperidin-4-yl)-propoxy]-phenyl}-methanol]
[1]
  Ki: 4 nM

## Cc1cc(C)c2nc(-c3cc(OCCCCC4CCN(C)CC4)ncc3CO)[nH]c2c1 [Example 177, {4-(4,6-Dimethyl-1H-benzoimidazol-2-yl)-6-[4-(1-methyl-piperidin-4-yl)-butoxy]-pyridin-3-yl}-methanol]
[1]
  Ki: 4 nM

## NCCc1c[nH]cn1 [Histamine, histamine]
Human eosinophils; [2]
  Fold Change (eosinophil shape change): 1.01
Human eosinophils; [3]
  Fold Change (eosinophil shape change): 1.21
Human eosinophils; [4]
  Fold Change (eosinophil shape change): 1.31
Human eosinophils; [5]
  Fold Change (eosinophil shape change): 1.34

## CN(C)CCOC(c1ccccc1)c1ccccc1 [diphenhydramine]
Human eosinophils; [6]
  Fold Change (eosinophil shape change): 1.00
Human eosinophils; [2]
  Fold Change (eosinophil shape change): 1.03
Human eosinophils; [3]
  Fold Change (eosinophil shape change): 1.18
Human eosinophils; [4]
  Fold Change (eosinophil shape change): 1.50
Human eosinophils; [5]
  Fold Change (eosinophil shape change): 1.63
Human eosinophils
  effect on histamine-induced eosinophil shape change: did not alter the histamine-induced shape change

## CNC(=C[N+](=O)[O-])NCCSCc1ccc(CN(C)C)o1 [ranatidine]
Human eosinophils; [6]
  Fold Change (eosinophil shape change): 1.00
Human eosinophils; [2]
  Fold Change (eosinophil shape change): 1.04
Human eosinophils; [3]
  Fold Change (eosinophil shape change): 1.21
Human eosinophils; [4]
  Fold Change (eosinophil shape change): 1.49
Human eosinophils; [5]
  Fold Change (eosinophil shape change): 1.64
Human eosinophils
  effect on histamine-induced eosinophil shape change: did not alter the histamine-induced shape change
